# Laboratory results published in patent US20240016895A1, “HEPCIDIN MIMETICS FOR TREATMENT OF SICKLE CELL DISEASE” (Protagonist Therapeutics, Inc., priority 2022, published 2024).
# “Also recorded” adds a separate entry of the source. Where a SMILES comes first, the peptide text is derived from it.
# Key:
# Type in all cases: in vivo
# Townes SCD mice [1] = assay: Serum RBC hemolysis biomarkers (total bilirubin, LDH) in Townes SCD mice treated for 4 weeks; settings: for LDH / Total bilirubin: serum, 4 weeks
# Method: (§1) Compound 46, a hepcidin mimetic, was administered subcutaneously at 1.0 mg/kg (group 3, N=9) or 2.5 mg/kg (group 4, N=9) in Townes SCD mice. 36 Townes SCD and 6 129S1/SvlmJ (wild-type), female mice, 5 weeks old upon delivery. A control group of wild-type mice (groups 1, N=6) was treated with vehicle as well as another SCD mice (group 2, N=9). All mice were dosed three times per week (TIW). All mice were maintained on an iron-adjusted diet (TD.140258, 35 ppm iron) throughout the study. Collections and necropsies were performed 24 hours post-last dose of compound or vehicle. After 4 weeks on study, animals from each group were euthanized, EDTA whole blood collected for CBC and serum was collected for hemolysis biomarker analysis. Spleens and livers were weighed at terminus. Liver, spleen, kidney, heart and brain were collected for future analysis. Serum and urine were collected to analyze chemistry markers, such as bilirubin, LDH (lactate dehydrogenase), haptoglobin, urine creatinine, urine total protein and urine urea nitrogen.
# Serum total bilirubin and serum lactate dehydrogenase are hemolysis biomarkers.
# Townes SCD mice [2] = assay: Complete blood count (hematological parameters) in Townes SCD mice treated for 4 weeks; settings: for % Retics / Abs Retics / HCT / HGB / MCH / MCHC / MCV / RBC: 4 weeks
# Method: as §1
# As shown in FIG. 4A and FIG. 4B, reticulocytes were counted both with the automated analyzer as well as manually from a new methylene blue stained blood smear by counting the number of positive stained cells encountered in 500 erythrocytes and calculating the percentage.
# Townes SCD mice [3] = assay: Spleen and liver weights and organ to body weight ratios at terminus in Townes SCD mice
# Method: as §1, with “Compound 46, a hepcidin mimetic, was administered subcutaneously at 1.0 mg/kg (group 3, N=9) or 2.5 mg/kg (group 4, N=9) in Townes SCD mice.” left out
# [4] = Dose 1 (mg/kg subcutaneously TIW)
# [5] = Dose 2.5 (mg/kg subcutaneously TIW)
smiles,measurement,setting,value
"CCCCCCCCCCCCCCCC(=O)N[C@@H](CCC(=O)NCCCC[C@@H]1NC(=O)[C@H]([C@@H](C)CC)NC(=O)[C@@H](NC(=O)[C@@H]2CCCN2C(=O)[C@H](Cc2ccccc2)NC(=O)[C@H](Cc2cnc[nH]2)NC(=O)[C@@H](NC(=O)[C@H](CCC(=O)O)NC(=O)CC(C)C)[C@@H](C)O)CSSC[C@@H](C(=O)N[C@@H](CCCCN)C(N)=O)NC(=O)CNC(=O)[C@H](CCCCN)NC(=O)[C@H](CO)NC(=O)[C@H](CCCNC(=N)N)NC(=O)[C@@H]2CCCN2C(=O)[C@H](CCC(=O)O)NC(=O)[C@H](Cc2ccccc2)NC1=O)C(=O)O [Compound 46, Isovaleric_Acid-ETHFPCI(K(IsoGlu_Palm))FEPRSKGCK-NH2] (HELM PEPTIDE1{[CC(C)CC(=O)[*:2]].E.T.H.F.P.C.I.K.F.E.P.R.S.K.G.C.K.[am]}|PEPTIDE2{[CCCCCCCCCCCCCCCC(=O)[*:2]].[gGlu]}$PEPTIDE1,PEPTIDE2,9:R3-2:R2|PEPTIDE1,PEPTIDE1,7:R3-17:R3$$$V2.0)",Serum total bilirubin,"Townes SCD mice [1]; result in words, FIG. 9A",significantly reduced both parameters in a dose dependent manner
same,Serum lactate dehydrogenase (LDH),"Townes SCD mice [1]; result in words, FIG. 9B",significantly reduced both parameters in a dose dependent manner
same,LDH,Townes SCD mice [1]; [4],610.6 ± 341.0 U/L
same,Total bilirubin,Townes SCD mice [1]; [4],2.16 ± 0.34 mg/dL
same,LDH,Townes SCD mice [1]; [5],372.3 ± 70.96 U/L
same,Total bilirubin,Townes SCD mice [1]; [5],1.13 ± 0.37 mg/dL
same,RBC count,"Townes SCD mice [2]; 2.5 mg/kg dose, result in words, FIG. 3A",significantly reduced
same,Percent of reticulocytes compared to vehicle control,"Townes SCD mice [2]; 2.5 mg/kg dose, result in words, FIG. 4B",decreased percent of reticulocytes significantly
same,Mean corpuscular hemoglobin concentration (MCHC) compared to vehicle control,"Townes SCD mice [2]; 2.5 mg/kg, result in words, FIG. 6B",significant increase in MCHC
same,% Retics,Townes SCD mice [2]; [4],65.78 ± 12.23%
same,Abs Retics,Townes SCD mice [2]; [4],2612 ± 627.9 K/uL
same,HCT,Townes SCD mice [2]; [4],29.62 ± 3.45 %
same,HGB,Townes SCD mice [2]; [4],5.89 ± 0.93 g/dL
same,MCH,Townes SCD mice [2]; [4],9.89 ± 0.45 pg
same,MCHC,Townes SCD mice [2]; [4],19.82 ± 1.65 g/dL
same,MCV,Townes SCD mice [2]; [4],50.11 ± 3.41 fL
same,RBC,Townes SCD mice [2]; [4],5.94 ± 0.78 M/uL
same,% Retics,Townes SCD mice [2]; [5],50.33 ± 6.73 %
same,Abs Retics,Townes SCD mice [2]; [5],1195 ± 246.5 K/uL
same,HCT,Townes SCD mice [2]; [5],16.27 ± 7.23 %
same,HGB,Townes SCD mice [2]; [5],4.39 ± 0.36 g/dL
same,MCH,Townes SCD mice [2]; [5],9.82 ± 0.63 pg
same,MCHC,Townes SCD mice [2]; [5],23.22 ± 3.10 g/dL
same,MCV,Townes SCD mice [2]; [5],42.56 ± 3.81 fL
same,RBC,Townes SCD mice [2]; [5],4.49 ± 0.55 M/uL
same,Hgb level,"Townes SCD mice [2]; result in words, FIG. 3B",significantly reduced in all three dose groups
same,Hematocrit (HCT),"Townes SCD mice [2]; result in words, FIG. 5A",significant reduction of HCT in a dose dependent manner
same,Mean corpuscular volume (MCV) compared to the vehicle group,"Townes SCD mice [2]; result in words, FIG. 5B",significant reduction of MCV in a dose dependent manner
same,Mean corpuscular hemoglobin (MCH) compared to vehicle control,"Townes SCD mice [2]; result in words, FIG. 6A",significant reduction in MCH
same,White blood cell (WBC) count,"Townes SCD mice [2]; result in words, FIG. 7A",significant WBC and lymphocyte reduction in a dose dependent manner; also recorded: alleviated elevated white blood cell (WBC) and lymphocytes counts
same,Lymphocyte count,"Townes SCD mice [2]; result in words, FIG. 7B",significant WBC and lymphocyte reduction in a dose dependent manner; also recorded: alleviated elevated white blood cell (WBC) and lymphocytes counts
same,Neutrophil count,"Townes SCD mice [2]; result in words, FIG. 8A",significantly decreased neutrophil count in a dose dependent manner; also recorded: alleviated elevated neutrophil and monocyte counts
same,Monocyte count,"Townes SCD mice [2]; result in words, FIG. 8B",alleviated elevated neutrophil and monocyte counts
same,Liver Weight,"Townes SCD mice [3]; SCD mice, Dose 1",1.290 g
same,Liver:BW Ratio,"Townes SCD mice [3]; SCD mice, Dose 1",0.0633 g/g
same,Spleen Weight,"Townes SCD mice [3]; SCD mice, Dose 1",1.035 g
same,Spleen:BW Ratio,"Townes SCD mice [3]; SCD mice, Dose 1",0.0508 g/g
same,Liver Weight,"Townes SCD mice [3]; SCD mice, Dose 2.5",1.138 g
same,Liver:BW Ratio,"Townes SCD mice [3]; SCD mice, Dose 2.5",0.0573 g/g
same,Spleen Weight,"Townes SCD mice [3]; SCD mice, Dose 2.5",0.725 g
same,Spleen:BW Ratio,"Townes SCD mice [3]; SCD mice, Dose 2.5",0.0365 g/g
same,Liver Weight,"Townes SCD mice [3]; SCD mice, Dose 7.5",0.758 g
same,Liver:BW Ratio,"Townes SCD mice [3]; SCD mice, Dose 7.5",0.0549 g/g
same,Spleen Weight,"Townes SCD mice [3]; SCD mice, Dose 7.5",0.301 g
same,Spleen:BW Ratio,"Townes SCD mice [3]; SCD mice, Dose 7.5",0.0217 g/g
same,Spleen weights compared to vehicle,"Townes SCD mice [3]; SCD mice, result in words, FIG. 1A",significantly and dose-dependently lower
same,Spleen to body weight ratios compared to vehicle,"Townes SCD mice [3]; SCD mice, result in words, FIG. 1B",significantly and dose-dependently lower
same,Liver weight compared to vehicle treated SCD mice,"Townes SCD mice [3]; SCD mice, result in words, FIG. 2A",significantly lower in a dose dependent manner
same,Liver to body weight ratios compared to vehicle treated SCD mice,"Townes SCD mice [3]; SCD mice, result in words, FIG. 2B",significantly lower in a dose dependent manner
same,Spleen size,"Townes SCD mice [3]; Townes SCD mice, figure legend FIG. 1A/1B",reduces spleen size
same,Liver size,"Townes SCD mice [3]; Townes SCD mice, figure legend FIG. 2A/2B",reduces liver size
